Data published in ChEMBL document CHEMBL3991601, “The target landscape of clinical kinase drugs” (Science, 2017).
Activity calls are given as the source filed them.

Key:
[1] = molecular target: GTP-binding nuclear protein Ran (Homo sapiens, UniProt P62826)
[2] = molecular target: Guanine nucleotide-binding protein G(i) subunit alpha-2 (Homo sapiens, UniProt P04899)
[3] = molecular target: T1, Acyl-CoA dehydrogenase family member 10 (Homo sapiens, UniProt Q6JQN1)
T1 sequence (Q6JQN1 whole entry): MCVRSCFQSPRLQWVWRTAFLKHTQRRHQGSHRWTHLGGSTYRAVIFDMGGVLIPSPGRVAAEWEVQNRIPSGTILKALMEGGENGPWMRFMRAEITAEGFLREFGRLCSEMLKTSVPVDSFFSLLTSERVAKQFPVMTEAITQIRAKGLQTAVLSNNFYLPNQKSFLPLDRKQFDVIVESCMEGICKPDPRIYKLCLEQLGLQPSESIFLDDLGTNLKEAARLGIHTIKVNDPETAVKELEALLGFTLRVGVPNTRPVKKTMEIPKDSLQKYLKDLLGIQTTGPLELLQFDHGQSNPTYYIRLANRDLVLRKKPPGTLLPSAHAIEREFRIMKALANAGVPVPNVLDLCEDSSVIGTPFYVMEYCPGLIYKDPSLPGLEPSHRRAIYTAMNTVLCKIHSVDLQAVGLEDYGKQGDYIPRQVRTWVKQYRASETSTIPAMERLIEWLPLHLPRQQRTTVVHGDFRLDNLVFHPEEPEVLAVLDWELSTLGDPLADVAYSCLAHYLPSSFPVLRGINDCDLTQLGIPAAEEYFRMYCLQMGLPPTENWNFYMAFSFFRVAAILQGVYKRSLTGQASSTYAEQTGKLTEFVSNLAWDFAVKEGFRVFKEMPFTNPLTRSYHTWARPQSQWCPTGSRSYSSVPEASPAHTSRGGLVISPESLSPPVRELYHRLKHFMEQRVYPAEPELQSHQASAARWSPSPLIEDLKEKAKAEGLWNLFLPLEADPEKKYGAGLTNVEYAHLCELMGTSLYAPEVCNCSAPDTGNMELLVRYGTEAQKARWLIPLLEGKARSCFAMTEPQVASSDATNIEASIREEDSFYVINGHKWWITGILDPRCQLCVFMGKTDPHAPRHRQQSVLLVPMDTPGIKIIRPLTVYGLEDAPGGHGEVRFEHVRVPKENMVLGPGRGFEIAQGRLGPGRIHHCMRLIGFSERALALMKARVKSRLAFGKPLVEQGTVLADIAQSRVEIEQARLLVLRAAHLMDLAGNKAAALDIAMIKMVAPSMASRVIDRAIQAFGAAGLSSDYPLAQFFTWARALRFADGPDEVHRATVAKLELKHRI

[4] = molecular target: T2, Serine/threonine-protein kinase D3 (Homo sapiens, UniProt O94806)
T2 sequence (O94806 whole entry): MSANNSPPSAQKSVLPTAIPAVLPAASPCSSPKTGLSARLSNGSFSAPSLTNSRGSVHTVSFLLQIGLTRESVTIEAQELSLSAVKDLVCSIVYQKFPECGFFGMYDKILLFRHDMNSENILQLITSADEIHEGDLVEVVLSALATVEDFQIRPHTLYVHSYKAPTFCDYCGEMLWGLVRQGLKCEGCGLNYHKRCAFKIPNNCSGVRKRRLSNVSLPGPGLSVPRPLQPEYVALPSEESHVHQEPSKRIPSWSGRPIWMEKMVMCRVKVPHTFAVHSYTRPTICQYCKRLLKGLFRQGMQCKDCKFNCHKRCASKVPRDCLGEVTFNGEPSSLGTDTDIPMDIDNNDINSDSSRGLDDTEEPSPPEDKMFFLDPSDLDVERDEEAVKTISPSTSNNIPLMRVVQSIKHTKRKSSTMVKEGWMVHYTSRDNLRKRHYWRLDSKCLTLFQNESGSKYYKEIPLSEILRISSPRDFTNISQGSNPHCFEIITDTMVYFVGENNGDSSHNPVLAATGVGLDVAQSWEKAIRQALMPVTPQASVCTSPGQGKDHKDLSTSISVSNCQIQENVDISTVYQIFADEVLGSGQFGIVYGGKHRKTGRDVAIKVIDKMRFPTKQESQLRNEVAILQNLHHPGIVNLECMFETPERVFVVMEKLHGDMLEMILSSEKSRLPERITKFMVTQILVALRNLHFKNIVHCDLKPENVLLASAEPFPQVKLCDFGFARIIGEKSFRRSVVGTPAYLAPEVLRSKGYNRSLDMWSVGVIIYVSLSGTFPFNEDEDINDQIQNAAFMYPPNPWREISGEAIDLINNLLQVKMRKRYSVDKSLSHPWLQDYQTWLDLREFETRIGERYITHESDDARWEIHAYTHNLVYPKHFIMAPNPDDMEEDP

[5] = molecular target: Ribosomal protein S6 kinase alpha-5 (Homo sapiens, UniProt O75582)
Chain of Ribosomal protein S6 kinase alpha-5 (O75582 whole entry): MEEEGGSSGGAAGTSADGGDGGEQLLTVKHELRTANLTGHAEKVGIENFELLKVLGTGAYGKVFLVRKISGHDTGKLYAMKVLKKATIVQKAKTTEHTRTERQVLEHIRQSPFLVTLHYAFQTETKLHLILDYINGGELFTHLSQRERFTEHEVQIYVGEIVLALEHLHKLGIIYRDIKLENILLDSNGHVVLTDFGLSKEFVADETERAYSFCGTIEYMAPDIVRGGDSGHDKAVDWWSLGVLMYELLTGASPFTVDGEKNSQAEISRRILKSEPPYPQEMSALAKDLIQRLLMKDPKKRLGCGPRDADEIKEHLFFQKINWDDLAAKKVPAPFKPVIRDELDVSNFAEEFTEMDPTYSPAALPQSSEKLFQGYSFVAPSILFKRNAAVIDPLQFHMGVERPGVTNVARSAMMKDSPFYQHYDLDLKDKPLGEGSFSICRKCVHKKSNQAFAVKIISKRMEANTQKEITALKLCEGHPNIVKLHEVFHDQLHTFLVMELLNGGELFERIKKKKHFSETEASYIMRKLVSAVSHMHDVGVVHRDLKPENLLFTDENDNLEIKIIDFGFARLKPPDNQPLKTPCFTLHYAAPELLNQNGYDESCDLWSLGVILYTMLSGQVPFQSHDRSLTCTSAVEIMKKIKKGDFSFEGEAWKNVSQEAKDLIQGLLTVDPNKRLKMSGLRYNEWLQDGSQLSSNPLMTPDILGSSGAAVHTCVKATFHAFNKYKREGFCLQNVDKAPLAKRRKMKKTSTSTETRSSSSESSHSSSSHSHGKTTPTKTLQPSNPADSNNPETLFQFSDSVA

[6] = molecular target: Chromodomain-helicase-DNA-binding protein 4 (Homo sapiens, UniProt Q14839)
Chain of Chromodomain-helicase-DNA-binding protein 4 (Q14839 whole entry): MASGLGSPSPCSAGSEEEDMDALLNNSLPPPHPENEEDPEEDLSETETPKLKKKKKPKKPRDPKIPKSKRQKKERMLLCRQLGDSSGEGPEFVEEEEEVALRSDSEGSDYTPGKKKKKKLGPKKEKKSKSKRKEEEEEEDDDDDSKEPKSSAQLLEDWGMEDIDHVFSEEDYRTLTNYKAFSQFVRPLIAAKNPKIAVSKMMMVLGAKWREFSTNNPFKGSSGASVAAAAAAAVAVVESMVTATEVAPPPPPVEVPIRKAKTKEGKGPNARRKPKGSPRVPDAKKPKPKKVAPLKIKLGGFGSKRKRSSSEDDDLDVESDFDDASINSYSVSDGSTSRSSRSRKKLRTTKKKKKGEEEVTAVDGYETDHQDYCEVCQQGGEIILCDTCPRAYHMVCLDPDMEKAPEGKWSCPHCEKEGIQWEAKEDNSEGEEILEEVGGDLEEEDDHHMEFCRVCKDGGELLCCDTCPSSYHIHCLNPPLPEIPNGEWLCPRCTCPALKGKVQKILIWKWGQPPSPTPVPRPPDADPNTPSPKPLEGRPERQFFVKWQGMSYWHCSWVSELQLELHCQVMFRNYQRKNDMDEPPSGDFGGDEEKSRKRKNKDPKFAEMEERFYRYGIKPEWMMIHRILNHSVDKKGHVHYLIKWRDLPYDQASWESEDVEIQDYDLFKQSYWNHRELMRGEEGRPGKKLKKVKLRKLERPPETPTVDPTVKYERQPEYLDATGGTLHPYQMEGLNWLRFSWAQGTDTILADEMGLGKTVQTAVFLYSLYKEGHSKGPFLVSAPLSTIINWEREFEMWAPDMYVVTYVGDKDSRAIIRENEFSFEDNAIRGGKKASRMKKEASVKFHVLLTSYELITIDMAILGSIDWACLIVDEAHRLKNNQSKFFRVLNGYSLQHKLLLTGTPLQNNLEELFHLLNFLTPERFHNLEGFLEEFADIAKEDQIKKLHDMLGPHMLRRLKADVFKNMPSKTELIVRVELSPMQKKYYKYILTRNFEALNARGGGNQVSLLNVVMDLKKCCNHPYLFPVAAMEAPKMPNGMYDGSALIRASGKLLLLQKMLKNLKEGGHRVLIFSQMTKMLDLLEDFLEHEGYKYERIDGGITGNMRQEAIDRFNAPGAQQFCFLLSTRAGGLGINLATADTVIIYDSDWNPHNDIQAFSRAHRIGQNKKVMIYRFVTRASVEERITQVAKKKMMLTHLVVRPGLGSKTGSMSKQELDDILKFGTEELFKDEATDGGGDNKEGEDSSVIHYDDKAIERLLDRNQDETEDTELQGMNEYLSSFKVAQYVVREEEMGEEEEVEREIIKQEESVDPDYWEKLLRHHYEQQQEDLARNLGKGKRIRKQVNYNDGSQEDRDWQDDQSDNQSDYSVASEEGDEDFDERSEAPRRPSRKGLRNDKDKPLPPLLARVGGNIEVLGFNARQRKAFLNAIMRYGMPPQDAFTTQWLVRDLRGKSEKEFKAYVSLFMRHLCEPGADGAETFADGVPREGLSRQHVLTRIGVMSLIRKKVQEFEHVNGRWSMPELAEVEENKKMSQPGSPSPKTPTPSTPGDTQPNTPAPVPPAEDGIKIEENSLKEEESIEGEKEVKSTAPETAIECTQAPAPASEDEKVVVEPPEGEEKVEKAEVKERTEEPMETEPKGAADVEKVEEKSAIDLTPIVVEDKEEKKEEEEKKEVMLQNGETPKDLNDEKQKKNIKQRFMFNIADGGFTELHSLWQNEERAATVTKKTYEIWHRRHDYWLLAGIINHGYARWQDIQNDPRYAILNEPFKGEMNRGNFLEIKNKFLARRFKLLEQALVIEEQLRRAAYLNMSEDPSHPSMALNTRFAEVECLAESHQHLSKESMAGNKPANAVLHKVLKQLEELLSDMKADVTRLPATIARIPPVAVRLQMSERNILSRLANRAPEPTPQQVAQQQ

[7] = molecular target: Tyrosine-protein kinase JAK1 (Homo sapiens, UniProt P23458)
Chain of Tyrosine-protein kinase JAK1 (P23458 whole entry): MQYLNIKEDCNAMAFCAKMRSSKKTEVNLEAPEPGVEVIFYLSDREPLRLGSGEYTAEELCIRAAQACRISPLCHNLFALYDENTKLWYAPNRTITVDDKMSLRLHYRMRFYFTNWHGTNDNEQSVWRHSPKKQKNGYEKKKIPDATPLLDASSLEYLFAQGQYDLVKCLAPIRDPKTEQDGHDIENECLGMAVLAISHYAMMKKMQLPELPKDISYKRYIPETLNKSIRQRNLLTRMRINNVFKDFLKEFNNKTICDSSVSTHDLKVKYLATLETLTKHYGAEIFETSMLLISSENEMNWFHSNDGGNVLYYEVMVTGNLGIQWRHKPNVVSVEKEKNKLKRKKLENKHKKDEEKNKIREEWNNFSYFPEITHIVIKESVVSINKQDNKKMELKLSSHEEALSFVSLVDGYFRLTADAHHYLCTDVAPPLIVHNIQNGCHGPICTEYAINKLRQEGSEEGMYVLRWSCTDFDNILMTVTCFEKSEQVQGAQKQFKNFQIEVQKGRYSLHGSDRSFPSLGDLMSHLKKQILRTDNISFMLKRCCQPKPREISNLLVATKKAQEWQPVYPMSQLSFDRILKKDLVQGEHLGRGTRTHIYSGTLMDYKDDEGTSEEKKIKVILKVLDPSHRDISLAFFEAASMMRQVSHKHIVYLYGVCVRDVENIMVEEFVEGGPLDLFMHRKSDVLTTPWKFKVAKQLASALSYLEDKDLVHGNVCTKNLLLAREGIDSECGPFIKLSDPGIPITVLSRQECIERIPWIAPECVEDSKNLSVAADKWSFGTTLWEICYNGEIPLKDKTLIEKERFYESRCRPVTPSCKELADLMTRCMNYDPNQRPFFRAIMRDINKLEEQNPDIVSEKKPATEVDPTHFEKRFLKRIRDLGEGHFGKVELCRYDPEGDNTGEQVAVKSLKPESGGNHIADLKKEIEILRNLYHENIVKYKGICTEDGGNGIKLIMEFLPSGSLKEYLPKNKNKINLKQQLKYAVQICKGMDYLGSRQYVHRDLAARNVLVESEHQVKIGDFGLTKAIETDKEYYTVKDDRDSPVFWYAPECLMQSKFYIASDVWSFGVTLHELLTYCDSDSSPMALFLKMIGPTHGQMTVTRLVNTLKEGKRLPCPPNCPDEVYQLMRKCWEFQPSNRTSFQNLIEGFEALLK
Further: in the data inactive means no Kd found up to 30 µM.

Chain of Guanine nucleotide-binding protein G(i) subunit alpha-2 (P04899 whole entry): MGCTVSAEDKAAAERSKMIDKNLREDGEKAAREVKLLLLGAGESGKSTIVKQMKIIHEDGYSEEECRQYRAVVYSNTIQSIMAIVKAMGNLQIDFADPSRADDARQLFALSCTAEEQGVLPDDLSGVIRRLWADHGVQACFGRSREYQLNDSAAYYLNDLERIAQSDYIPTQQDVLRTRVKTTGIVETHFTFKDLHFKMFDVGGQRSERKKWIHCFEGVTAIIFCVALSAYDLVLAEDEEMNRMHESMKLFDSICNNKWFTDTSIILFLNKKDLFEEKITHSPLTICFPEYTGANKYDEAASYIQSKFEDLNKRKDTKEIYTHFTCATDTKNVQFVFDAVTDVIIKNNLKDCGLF

Row | Structure (SMILES) | Kd [1] | Kd [2] | Kd [3] | Kd [4] | Kd [5] | Kd [6] | Kd [7]
1 | C[C@@H](Oc1cc(C(=O)Nc2ccc(C(=O)N3CCN(C)CC3)cc2)nnc1N)c1c(Cl)ccc(F)c1Cl | > 30 µM (inactive) | > 30 µM (inactive) | > 30 µM (inactive) | > 30 µM (inactive) | > 30 µM (inactive) | > 30 µM (inactive) | > 30 µM (inactive)
2 | C[C@H]1CNCCCN1S(=O)(=O)c1cccc2cncc(F)c12 | > 30 µM (inactive) | > 30 µM (inactive) | > 30 µM (inactive) | > 30 µM (inactive) | > 30 µM (inactive) | > 30 µM (inactive) | > 30 µM (inactive)
3 | CCNC(=O)C#Cc1ccc2c(c1)NC(=O)/C2=C(\Nc1ccc(CN(C)C)cc1)c1ccccc1 | > 30 µM (inactive) | > 30 µM (inactive) | > 30 µM (inactive) | > 30 µM (inactive) | > 30 µM (inactive) | > 30 µM (inactive) | > 30 µM (inactive)
4 | Cc1nc2cc(-c3nn(C(C)C)c4ncnc(N)c34)ccc2o1 | > 30 µM (inactive) | > 30 µM (inactive) | > 30 µM (inactive) | > 30 µM (inactive) | > 30 µM (inactive) | > 30 µM (inactive) | > 30 µM (inactive)
5 | COc1cc([C@@H]2c3cc4c(cc3[C@H](O)[C@H]3COC(=O)[C@@H]23)OCO4)cc(OC)c1OC [AXL-1717] | > 30 µM (inactive) | > 30 µM (inactive) |  | > 30 µM (inactive) | > 30 µM (inactive) | > 30 µM (inactive) | > 30 µM (inactive)
6 | CNC(=O)c1nn(C)c2c1C(C)(C)Cc1cnc(Nc3ccc(N4CCN(C)CC4)cc3)nc1-2 [MILCICLIB] | > 30 µM (inactive) | > 30 µM (inactive) | > 30 µM (inactive) | 0.135 µM (active) | > 30 µM (inactive) |  | > 30 µM (inactive)
7 | Cc1[nH]c(/C=C2\C(=O)Nc3ccccc32)c(C)c1CCC(=O)O [ORANTINIB] | > 30 µM (inactive) | > 30 µM (inactive) | > 30 µM (inactive) |  |  | > 30 µM (inactive) | > 30 µM (inactive)
8 | N#CC[C@H](C1CCCC1)n1cc(-c2ncnc3[nH]ccc23)cn1 [RUXOLITINIB] | > 30 µM (inactive) | > 30 µM (inactive) | > 30 µM (inactive) |  |  | > 30 µM (inactive) | 
9 | Cn1ncc(Cl)c1-c1cc(C(=O)N[C@H](CN)Cc2ccc(F)c(F)c2)oc1Cl [UPROSERTIB] | > 30 µM (inactive) | > 30 µM (inactive) |  | 2.64 µM (active) | > 30 µM (inactive) | > 30 µM (inactive) | > 30 µM (inactive)
10 | CN1C/C=C/CCOc2cccc(c2)-c2ccnc(n2)Nc2cccc(c2)C1 [ZOTIRACICLIB] | > 30 µM (inactive) | > 30 µM (inactive) |  | 0.557 µM (active) | > 30 µM (inactive) | > 30 µM (inactive) | 2.01 µM (active)

Next, values leading:

Row | Kd [1] | Kd [2] | Kd [3] | Kd [4] | Kd [5] | Kd [6] | Kd [7] | Structure (SMILES)
11 | > 30 µM (inactive) | > 30 µM (inactive) | > 30 µM (inactive) | > 30 µM (inactive) | > 30 µM (inactive) |  | > 30 µM (inactive) | Nc1ncnc2c1c(-c1cccc(OCc3ccccc3)c1)cn2[C@H]1C[C@@H](CN2CCC2)C1 [AEW-541]
12 | > 30 µM (inactive) | > 30 µM (inactive) |  | > 30 µM (inactive) | > 30 µM (inactive) | > 30 µM (inactive) | > 30 µM (inactive) | CN(C[C@@H]1COCCO1)S(=O)(=O)Nc1ccc2ccc3ncc(-c4cnn(C)c4)cc3c(=O)c2c1 [MK-2461]
13 | > 30 µM (inactive) | > 30 µM (inactive) | > 30 µM (inactive) |  |  | > 30 µM (inactive) | > 30 µM (inactive) | NC(=O)c1c(OCc2c(F)cc(Br)cc2F)nsc1NC(=O)NCCCCN1CCCC1 [OSI-632]
14 | > 30 µM (inactive) | > 30 µM (inactive) | > 30 µM (inactive) |  |  | > 30 µM (inactive) |  | O=C(NOCCO)c1cc(CN2OCCCC2=O)c(F)c(F)c1Nc1ccc(I)cc1F [RO-4987655]
15 | > 30 µM (inactive) | > 30 µM (inactive) |  | > 30 µM (inactive) | > 30 µM (inactive) | > 30 µM (inactive) | > 30 µM (inactive) | CCS(=O)(=O)c1cccc(-c2cc(C(=O)NC3CCN(C)CC3)c(C)c3[nH]c4ncc(C)cc4c23)c1 [TAK-901]
